According to ChEMBL document CHEMBL3885881, “DrugMatrix”:

Organism: Rattus norvegicus
Experiment: DrugMatrix - Regimen: Daily Repeat
Assay type: toxicity, organism-based, Sprague-Dawley
Design: regimen Daily Repeat, gender Male, age 6-8 weeks
Conditions: in vivo, po, route oral GAVAGE, vehicle 100 % WATER; for ABSOLUTE BASOPHIL / ABSOLUTE EOSINOPHIL / ABSOLUTE LYMPHOCYTE / ABSOLUTE MONOCYTE / ABSOLUTE SEGMENTED NEUTROPHIL / BASOPHIL / EOSINOPHIL / ERYTHROCYTE COUNT / HEMATOCRIT / HEMOGLOBIN / LEUKOCYTE COUNT / LYMPHOCYTE / MEAN CORPUSCULAR HEMOGLOBIN / MEAN CORPUSCULAR HEMOGLOBIN CONCENTRATION / MEAN CORPUSCULAR VOLUME / MONOCYTE / NEUTROPHIL / NUCLEATED RED BLOOD CELLS / PLATELET COUNT: tissue Blood; for ALANINE AMINOTRANSFERASE / ALBUMIN / ALKALINE PHOSPHATASE / ASPARTATE AMINOTRANSFERASE / BLOOD UREA NITROGEN / CARBON DIOXIDE / CHLORIDE / CHOLESTEROL / CREATINE PHOSPHOKINASE / CREATININE / GLUCOSE / LIPASE / PHOSPHORUS / POTASSIUM / SODIUM / TOTAL BILIRUBIN / TOTAL PROTEIN / URIC ACID: tissue Plasma
[1] = 175 mg/kg, 120 h, dose level High, time 5 day
[2] = […], 72 h, dose 5.7 mg/Kg, dose level Low, time 3 day
[3] = […], 120 h, dose 5.7 mg/Kg, dose level Low, time 5 day

In the case of `CC(C)NCC(O)COc1cccc2ccccc12` (stereo unspecified) [PROPRANOLOL], the “ABSOLUTE BASOPHIL” value [1] is reported as 0 CELLS/uL, the “ABSOLUTE EOSINOPHIL” value [1] is reported as 0 CELLS/uL and the “ABSOLUTE LYMPHOCYTE” value [1] is reported as 13526.33 CELLS/uL. For the same compound, the “ABSOLUTE MONOCYTE” value [1] was 232.67 CELLS/uL, the “ABSOLUTE SEGMENTED NEUTROPHIL” value [1] was 741 CELLS/uL and the BASOPHIL [1] was 0%. For the same compound, the EOSINOPHIL [1] was 0%, the “ERYTHROCYTE COUNT” value [1] was 5.28 x10E6/uL and the HEMATOCRIT [1] was 34.3%. For the same compound, the HEMOGLOBIN [1] was 13.2 G/DL, the “LEUKOCYTE COUNT” value [1] was 14.5 x10E3/uL and the LYMPHOCYTE [1] was 93.33%. The “MEAN CORPUSCULAR HEMOGLOBIN” value [1] was 25 pg, the “MEAN CORPUSCULAR HEMOGLOBIN CONCENTRATION” value [1] was 38.5 G/DL and the “MEAN CORPUSCULAR VOLUME” value [1] was 65 fL. The MONOCYTE [1] was 1.67%, the NEUTROPHIL [1] was 5% and the “NUCLEATED RED BLOOD CELLS” value [1] was 0 /100WBC. For the same compound, the “PLATELET COUNT” value [1] was 1299 x10E3/uL, the “ALANINE AMINOTRANSFERASE” value [1] was 57.33 u/L and the ALBUMIN [1] was 3.97 G/DL. For the same compound, the “ALKALINE PHOSPHATASE” value [1] was 397.33 u/L, the “ASPARTATE AMINOTRANSFERASE” value [1] was 73.67 u/L and the “BLOOD UREA NITROGEN” value [1] was 17 mg/dL. For the same compound, the “CARBON DIOXIDE” value [1] was 29 mmol/L, the CHLORIDE [1] was 101 MEQ/L and the CHOLESTEROL [1] was 78.67 mg/dL. For the same compound, the “CREATINE PHOSPHOKINASE” value [1] was 314.67 u/L, the CREATININE [1] was 0.18 mg/dL and the GLUCOSE [1] was 149 mg/dL. The LIPASE [1] was 10 u/L, the PHOSPHORUS [1] was 13.43 mg/dL and the POTASSIUM [1] was 6.7 MEQ/L. The SODIUM [1] was 144.77 MEQ/L, the “TOTAL BILIRUBIN” value [1] was 0.2 mg/dL and the “TOTAL PROTEIN” value [1] was 5.6 G/DL. The “URIC ACID” value [1] was 1.33 mg/dL, the “ABSOLUTE BASOPHIL” value [2] was 0 CELLS/uL and the “ABSOLUTE EOSINOPHIL” value [2] was 0 CELLS/uL. The “ABSOLUTE LYMPHOCYTE” value [2] was 11391.33 CELLS/uL, the “ABSOLUTE MONOCYTE” value [2] was 180.33 CELLS/uL and the “ABSOLUTE SEGMENTED NEUTROPHIL” value [2] was 2228.33 CELLS/uL. For the same compound, the BASOPHIL [2] was 0%, the EOSINOPHIL [2] was 0% and the “ERYTHROCYTE COUNT” value [2] was 5.65 x10E6/uL. The HEMATOCRIT [2] was 35.6%, the HEMOGLOBIN [2] was 13.2 G/DL and the “LEUKOCYTE COUNT” value [2] was 13.8 x10E3/uL. For the same compound, the LYMPHOCYTE [2] was 82.33%, the “MEAN CORPUSCULAR HEMOGLOBIN” value [2] was 23.37 pg and the “MEAN CORPUSCULAR HEMOGLOBIN CONCENTRATION” value [2] was 37.07 G/DL. The “MEAN CORPUSCULAR VOLUME” value [2] was 62.97 fL, the MONOCYTE [2] was 1.33% and the NEUTROPHIL [2] was 16.33%. The “NUCLEATED RED BLOOD CELLS” value [2] was 0.33 /100WBC, the “PLATELET COUNT” value [2] was 1291 x10E3/uL and the “ALANINE AMINOTRANSFERASE” value [2] was 52.67 u/L. The ALBUMIN [2] was 4.07 G/DL, the “ALKALINE PHOSPHATASE” value [2] was 368.67 u/L and the “ASPARTATE AMINOTRANSFERASE” value [2] was 80 u/L. For the same compound, the “BLOOD UREA NITROGEN” value [2] was 14 mg/dL, the “CARBON DIOXIDE” value [2] was 27.67 mmol/L and the CHLORIDE [2] was 102.67 MEQ/L. The CHOLESTEROL [2] was 83 mg/dL, the “CREATINE PHOSPHOKINASE” value [2] was 155.33 u/L and the CREATININE [2] was 0.26 mg/dL. The GLUCOSE [2] was 153.33 mg/dL, the LIPASE [2] was 11.33 u/L and the PHOSPHORUS [2] was 13.73 mg/dL. For the same compound, the POTASSIUM [2] was 6.83 MEQ/L, the SODIUM [2] was 146 MEQ/L and the “TOTAL BILIRUBIN” value [2] was 0.2 mg/dL. The “TOTAL PROTEIN” value [2] was 5.83 G/DL, the “URIC ACID” value [2] was 1.7 mg/dL and the “ABSOLUTE BASOPHIL” value [3] was 0 CELLS/uL. The “ABSOLUTE EOSINOPHIL” value [3] was 0 CELLS/uL, the “ABSOLUTE LYMPHOCYTE” value [3] was 12645 CELLS/uL and the “ABSOLUTE MONOCYTE” value [3] was 541.67 CELLS/uL. For the same compound, the “ABSOLUTE SEGMENTED NEUTROPHIL” value [3] was 1413.33 CELLS/uL, the BASOPHIL [3] was 0% and the EOSINOPHIL [3] was 0%. For the same compound, the “ERYTHROCYTE COUNT” value [3] was 5.27 x10E6/uL, the HEMATOCRIT [3] was 34.07% and the HEMOGLOBIN [3] was 12.83 G/DL. For the same compound, the “LEUKOCYTE COUNT” value [3] was 14.6 x10E3/uL, the LYMPHOCYTE [3] was 87% and the “MEAN CORPUSCULAR HEMOGLOBIN” value [3] was 24.37 pg. For the same compound, the “MEAN CORPUSCULAR HEMOGLOBIN CONCENTRATION” value [3] was 37.77 G/DL, the “MEAN CORPUSCULAR VOLUME” value [3] was 64.5 fL and the MONOCYTE [3] was 3.67%. For the same compound, the NEUTROPHIL [3] was 9.33%, the “NUCLEATED RED BLOOD CELLS” value [3] was 0.33 /100WBC and the “PLATELET COUNT” value [3] was 1063 x10E3/uL. For the same compound, the “ALANINE AMINOTRANSFERASE” value [3] was 45.33 u/L, the ALBUMIN [3] was 4.27 G/DL and the “ALKALINE PHOSPHATASE” value [3] was 387.67 u/L. For the same compound, the “ASPARTATE AMINOTRANSFERASE” value [3] was 114 u/L, the “BLOOD UREA NITROGEN” value [3] was 22.33 mg/dL and the “CARBON DIOXIDE” value [3] was 21.67 mmol/L. The CHLORIDE [3] was 99.67 MEQ/L, the CHOLESTEROL [3] was 67.33 mg/dL and the “CREATINE PHOSPHOKINASE” value [3] was 1341.67 u/L. The CREATININE [3] was 0.51 mg/dL, the GLUCOSE [3] was 217 mg/dL and the LIPASE [3] was 11.67 u/L. It also gave a PHOSPHORUS [3] of 14.5 mg/dL, a POTASSIUM [3] of 7.21 MEQ/L and an SODIUM [3] of 143.73 MEQ/L. The “TOTAL BILIRUBIN” value [3] was 0.17 mg/dL, the “TOTAL PROTEIN” value [3] was 6.07 G/DL and the “URIC ACID” value [3] was 2.67 mg/dL.
